Among the data in patent US20100003276A1 (priority 2004, published 2010) are IC50 values, retold here.

What is called pIC50 is −log10 of the IC50, conventionally taken in molar units.

pIC50: −log10 of the molar value.

The assay deals with Bacillus anthracis lethal factor (Bacillus anthracis, UniProt P15917). Type of assay: biochemical. The conditions noted are these: read-out: lethal factor enzyme binding assay IC50.
Chain of Bacillus anthracis lethal factor (P15917 34-809 limits assumed): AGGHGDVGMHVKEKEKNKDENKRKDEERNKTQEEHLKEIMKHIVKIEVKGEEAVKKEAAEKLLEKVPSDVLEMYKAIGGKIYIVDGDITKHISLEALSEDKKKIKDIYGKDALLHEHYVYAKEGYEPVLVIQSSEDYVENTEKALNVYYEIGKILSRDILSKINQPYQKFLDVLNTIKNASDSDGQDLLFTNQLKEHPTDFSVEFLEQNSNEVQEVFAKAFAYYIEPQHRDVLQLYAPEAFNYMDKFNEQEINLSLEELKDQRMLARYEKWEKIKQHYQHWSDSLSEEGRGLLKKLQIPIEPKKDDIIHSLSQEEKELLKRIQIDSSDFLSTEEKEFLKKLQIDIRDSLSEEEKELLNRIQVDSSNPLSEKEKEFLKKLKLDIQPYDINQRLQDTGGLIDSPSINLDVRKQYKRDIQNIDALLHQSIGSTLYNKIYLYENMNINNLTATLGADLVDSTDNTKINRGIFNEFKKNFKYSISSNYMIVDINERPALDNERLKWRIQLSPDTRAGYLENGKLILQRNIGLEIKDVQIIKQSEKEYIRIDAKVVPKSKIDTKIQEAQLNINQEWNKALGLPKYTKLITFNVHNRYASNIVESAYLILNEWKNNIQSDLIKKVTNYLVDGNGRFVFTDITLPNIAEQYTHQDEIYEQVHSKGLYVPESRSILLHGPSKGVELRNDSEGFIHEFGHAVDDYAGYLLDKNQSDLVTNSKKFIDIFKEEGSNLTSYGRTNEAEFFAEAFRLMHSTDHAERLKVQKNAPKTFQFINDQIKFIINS

For `Cc1cc(S(=O)(=O)N[C@@H](C(=O)NO)C(C)C)ccc1F` [N-hydroxy-2(R)-[(4-fluoro-3-methylphenylsulfonyl)]amino-3-methylbutyramide], the pIC50 is 6.89.
